Assay results taken from patent publication US4232035A, “Carbamate pesticidal compounds compositions and methods of use” (priority 1975, dated 1980).

Assays:
[1] = test system: southern armyworm (Prodenia eridania, (Cram.)); assay: Southern Armyworm Leaf Spray Test; format: in vivo; parameters: key: A: excellent control; B: partial control; C: no control; settings: 500 parts per million leaf spray; three days
Description: (§1) Suspensions of the test compounds were prepared by dissolving one gram of compound in 50 milliliters of acetone in which had been dissolved 0.1 gram (10 percent of the weight of compound) of an alkylphenoxy polyethoxyethanol surfactant, as an emulsifying or dispersing agent. The resulting solution was mixed into 150 milliliters of water to give roughly 200 milliliters of a suspension containing the compound in finely divided form. The thus-prepared stock suspension contained 0.5 percent by weight of compound. The test concentrations in parts per million by weight employed in the tests described hereinbelow were obtained by appropriate dilutions of the stock suspension with water. The test procedures were as follows:
Larvae of the southern armyworm (Prodenia eridania, (Cram.)), reared on Tendergreen bean plants at a temperature of 80°±5° F. and a relative humidity of 50±5 percent, constituted the test insects.
The test compounds were formulated by diluting the stock suspension with water to give a suspension containing 500 parts of test compound per million parts of final formulation. Potted Tendergreen bean plants of standard height and age were placed on a revolving turntable and sprayed with 100-110 milliliters of test compound formulation by use of a DeVilbiss spray gun set at 10 psig air pressure. This application, which lasted 25 seconds, was sufficient to wet plants to run-off. As a control, 100-110 milliliters of a water-acetone-emulsifier solution containing no test compound were also sprayed on infested plants. When dry, the paired leaves were separated and each one was placed in a 9 centimeter Petri dish lined with moistened filter paper. Five randomly selected larvae were introduced into each dish and the dishes were closed. The closed dishes were labeled and held at 80°-85° F. for three days. Although the larvae could easily consume the whole leaf within twenty-four hours, no more food was added. Larvae which were unable to move the length of the body, even upon stimulation by prodding, were considered dead. Percent mortality was recorded for various concentration levels.

[2] = test system: root-knot nematode (Meloidogyne incognita var. acrita); assay: Nematode Test; format: in vivo; parameters: key: 1: severe galling; equal to untreated control; 2: moderate galling; 3: light galling; 4: very light galling; 5: no galling; settings: 10 ml of 500 parts per million formulation per jar of soil; cucumber indicator crop, approximately three weeks
Description: as §1
Infective migratory larvae of the root-knot nematode, (Meloidogyne incognita var. acrita) were reared in the greenhouse on roots of Rutgers variety tomato plant. Infected tomato plants were removed from the culture and the roots were chopped very finely. A small amount of inoculum from the roots was added to pint Mason jars containing approximately 180 cc of soil. The jars containing the inoculum and soil were capped and incubated for one week at room temperature. During this period eggs of the nematode hatched and the larvae forms migrated into the soil.
The test compounds were formulated by diluting the stock suspension with water to give a suspension containing 500 parts of test compound per million parts of final formulation. 10 milliliters of the test formulation was added to each of two jars for each dosage treated. As a control 10 milliliters of a water-acetone-emulsifier solution containing no test compound was also added to jars containing nematode larvae. The jars were capped and the contents thoroughly mixed on a kale mill for five minutes. The jars remained capped at room temperature for a period of 48 hours and the contents were then transferred to 3 inch pots. Subsequently, the pots were seeded to cucumber as an indicator crop and placed in the green house where they were cared for in the normal fashion for growing potted cucumber for approximately three weeks. These cucumber plants were then removed from the pots, the soil washed from the roots and the amount of galling visually rated.

SMILES	S. Armyworm, pesticidal activity rating [1]	Nematodes, nematocidal toxicity rating (galling) [2]
CN(SSC(C)(C)C)C(=O)ON=C1SC(C)(C)C(=O)N1C	A	1
CN(SSC(C)(C)C)C(=O)ON=C1SCCS1	A	5
